Measured values published in PMC10408569, “Recruitment of hexahydroquinoline as anticancer scaffold targeting inhibition of wild and mutants EGFR (EGFR^WT, EGFR^T790M, and EGFR^L858R)” (Journal of Enzyme Inhibition and Medicinal Chemistry, 2023).

Legend:
[1] = system: HS 578T; test: NCI-60 anticancer screening (SRB); type: cell-based; conditions: Homo sapiens; HS 578T, breast cancer; one dose 10 μM; read-out: Growth Inhibition Percentage (GI %)
[2] = system: PC-3; test: NCI-60 anticancer screening (SRB); type: cell-based; conditions: Homo sapiens; PC-3, prostate cancer; one dose 10 μM; read-out: Growth Inhibition Percentage (GI %)
[3] = system: NCI 60 cancer cell lines; test: NCI-60 anticancer screening (SRB), whole panel; type: cell-based, human; conditions: mean across the NCI-60 panel; one dose 10 μM
[4] = system: UACC-62; test: NCI-60 anticancer screening (SRB); type: cell-based; conditions: Homo sapiens; UACC-62, melanoma; one dose 10 μM; read-out: Growth Inhibition Percentage (GI %)
[5] = system: HCT-15; test: NCI-60 anticancer screening (SRB); type: cell-based; conditions: Homo sapiens; HCT-15, colon cancer; one dose 10 μM; read-out: Growth Inhibition Percentage (GI %)
[6] = system: HCT-116; test: NCI-60 anticancer screening (SRB); type: cell-based; conditions: Homo sapiens; HCT-116, colon cancer; one dose 10 μM; read-out: Growth Inhibition Percentage (GI %)
[7] = system: COLO 205; test: NCI-60 anticancer screening (SRB); type: cell-based; conditions: Homo sapiens; COLO 205, colon cancer; one dose 10 μM; read-out: Growth Inhibition Percentage (GI %)
[8] = system: MOLT-4; test: NCI-60 anticancer screening (SRB); type: cell-based; conditions: Homo sapiens; MOLT-4, leukemia; one dose 10 μM; read-out: Growth Inhibition Percentage (GI %)
[9] = system: SF-539; test: NCI-60 anticancer screening (SRB); type: cell-based; conditions: Homo sapiens; SF-539, CNS cancer; one dose 10 μM; read-out: Growth Inhibition Percentage (GI %)
[10] = system: IGROV1; test: NCI-60 anticancer screening (SRB); type: cell-based; conditions: Homo sapiens, IGROV-1; IGROV1, ovarian cancer; one dose 10 μM; read-out: Growth Inhibition Percentage (GI %)
[11] = system: NCI-H522; test: NCI-60 anticancer screening (SRB); type: cell-based; conditions: Homo sapiens; NCI-H522, NSC lung cancer; one dose 10 μM; read-out: Growth Inhibition Percentage (GI %)
[12] = system: MCF7; test: NCI-60 anticancer screening (SRB); type: cell-based; conditions: Homo sapiens; MCF7, breast cancer; one dose 10 μM; read-out: Growth Inhibition Percentage (GI %)
[13] = system: M14; test: NCI-60 anticancer screening (SRB); type: cell-based; conditions: Homo sapiens; M14, melanoma; one dose 10 μM; read-out: Growth Inhibition Percentage (GI %)
[14] = system: DU-145; test: NCI-60 anticancer screening (SRB); type: cell-based; conditions: Homo sapiens; DU-145, prostate cancer; one dose 10 μM; read-out: Growth Inhibition Percentage (GI %)
[15] = system: SF-268; test: NCI-60 anticancer screening (SRB); type: cell-based; conditions: Homo sapiens; SF-268, CNS cancer; one dose 10 μM; read-out: Growth Inhibition Percentage (GI %)
[16] = system: K-562; test: NCI-60 anticancer screening (SRB); type: cell-based; conditions: Homo sapiens, K562; K-562, leukemia; one dose 10 μM; read-out: Growth Inhibition Percentage (GI %)
[17] = system: RXF 393; test: NCI-60 anticancer screening (SRB); type: cell-based; conditions: Homo sapiens; RXF 393, renal cancer; one dose 10 μM; read-out: Growth Inhibition Percentage (GI %)
[18] = system: SF-295; test: NCI-60 anticancer screening (SRB); type: cell-based; conditions: Homo sapiens; SF-295, CNS cancer; one dose 10 μM; read-out: Growth Inhibition Percentage (GI %)
[19] = system: NCI/ADR-RES; test: NCI-60 anticancer screening (SRB); type: cell-based; conditions: Homo sapiens, ovarian cancer, one dose 10 μM, read-out: Growth Inhibition Percentage (GI %)
[20] = system: UO-31; test: NCI-60 anticancer screening (SRB); type: cell-based; conditions: Homo sapiens; UO-31, renal cancer; one dose 10 μM; read-out: Growth Inhibition Percentage (GI %)
[21] = system: UACC-257; test: NCI-60 anticancer screening (SRB); type: cell-based; conditions: Homo sapiens; UACC-257, melanoma; one dose 10 μM; read-out: Growth Inhibition Percentage (GI %)
[22] = system: HL-60(TB); test: NCI-60 anticancer screening (SRB); type: cell-based; conditions: Homo sapiens, leukemia, one dose 10 μM, read-out: Growth Inhibition Percentage (GI %)
[23] = system: HOP-62; test: NCI-60 anticancer screening (SRB); type: cell-based; conditions: Homo sapiens; HOP-62, NSC lung cancer; one dose 10 μM; read-out: Growth Inhibition Percentage (GI %)
[24] = system: NCI-H460; test: NCI-60 anticancer screening (SRB); type: cell-based; conditions: Homo sapiens; NCI-H460, NSC lung cancer; one dose 10 μM; read-out: Growth Inhibition Percentage (GI %)
[25] = system: MDA-MB-435; test: NCI-60 anticancer screening (SRB); type: cell-based; conditions: Homo sapiens; MDA-MB-435, melanoma; one dose 10 μM; read-out: Growth Inhibition Percentage (GI %)
[26] = system: OVCAR-8; test: NCI-60 anticancer screening (SRB); type: cell-based; conditions: Homo sapiens; OVCAR-8, ovarian cancer; one dose 10 μM; read-out: Growth Inhibition Percentage (GI %)
[27] = system: HT29; test: NCI-60 anticancer screening (SRB); type: cell-based; conditions: Homo sapiens, HT-29; HT29, colon cancer; one dose 10 μM; read-out: Growth Inhibition Percentage (GI %)

SMILES | inhibition at 10 µM [1] [%] | inhibition at 10 µM [2] [%] | GI % mean [3] | inhibition at 10 µM [4] [%] | inhibition at 10 µM [5] [%] | inhibition at 10 µM [6] [%] | inhibition at 10 µM [7] [%] | inhibition at 10 µM [8] [%] | inhibition at 10 µM [10] [%] | inhibition at 10 µM [11] [%] | inhibition at 10 µM [12] [%] | inhibition at 10 µM [13] [%] | inhibition at 10 µM [14] [%] | inhibition at 10 µM [15] [%] | inhibition at 10 µM [16] [%] | inhibition at 10 µM [17] [%] | melting point [°C] | inhibition at 10 µM [18] [%] | inhibition at 10 µM [19] [%] | inhibition at 10 µM [20] [%] | other results
CCOC(=O)C1=C(N)N(c2ccc(Cl)cc2)C2=C(C(=O)CC(C)(C)C2)C1c1ccc(N2CCOCC2)cc1 (racemic) [8m, (±)-Ethyl 2-amino-1–(4-chlorophenyl)-7,7-dimethyl-4-[4-(morpholin-4-yl)phenyl]-5-oxo-1,4,5,6,7,8-hexahydroquinoline-3-carboxylate] | < 10 | < 10 | - ((-) = GI % mean less than 10) | 17 | < 10 | < 10 | < 10 | < 10 | < 10 | 11 | < 10 | < 10 | < 10 | < 10 | < 10 | < 10 | 175 to 177 | 11 | < 10 | 15 | inhibition at 10 µM [9]: < 10%; inhibition at 10 µM [21]: < 10%; inhibition at 10 µM [22]: < 10%; inhibition at 10 µM [23]: < 10%; inhibition at 10 µM [24]: < 10%; inhibition at 10 µM [25]: < 10%; inhibition at 10 µM [26]: < 10%; inhibition at 10 µM [27]: < 10%
CCOC(=O)C1=C(N)N(c2ccccc2)C2=C(C(=O)CC(C)(C)C2)C1c1cccnc1 (racemic) [12d] | < 10 | < 10 | - ((-) = GI % mean less than 10) | 12 | < 10 | < 10 | < 10 | < 10 | < 10 | 15 | < 10 | < 10 | < 10 | < 10 | < 10 | < 10 | 215 to 217 | < 10 | 13 | 77 | inhibition at 10 µM [9]: < 10%; inhibition at 10 µM [21]: < 10%; inhibition at 10 µM [22]: < 10%; inhibition at 10 µM [23]: < 10%; inhibition at 10 µM [24]: < 10%; inhibition at 10 µM [25]: < 10%; inhibition at 10 µM [26]: < 10%; inhibition at 10 µM [27]: < 10%
CCOC(=O)C1=C(N)N(c2ccc(C)cc2)C2=C(C(=O)CC(C)(C)C2)C1c1ccc(OC)cc1 (racemic) [8g, (±)-Ethyl 2-amino-4–(4-methoxyphenyl)-7,7-dimethyl-1–(4-methylphenyl)-5-oxo-1,4,5,6,7,8-hexahydroquinoline-3-carboxylate] | < 10 | < 10 | - ((-) = GI % mean less than 10) | < 10 | < 10 | < 10 | < 10 | < 10 | < 10 | < 10 | < 10 | < 10 | < 10 | < 10 | < 10 | < 10 | 181 to 183 | < 10 | < 10 | < 10 | inhibition at 10 µM [9]: < 10%; inhibition at 10 µM [21]: < 10%; inhibition at 10 µM [22]: < 10%; inhibition at 10 µM [23]: < 10%; inhibition at 10 µM [24]: < 10%; inhibition at 10 µM [25]: < 10%; inhibition at 10 µM [26]: < 10%; inhibition at 10 µM [27]: < 10%
CCOC(=O)C1=C(N)N(c2ccc(C)cc2)C2=C(C(=O)CC(C)(C)C2)C1c1ccc([N+](=O)[O-])cc1 (racemic) [8j, (±)-Ethyl 2-amino-7,7-dimethyl-1–(4-methylphenyl)-4–(4-nitrophenyl)-5-oxo-1,4,5,6,7,8-hexahydroquinoline-3-carboxylate] | < 10 | < 10 | - ((-) = GI % mean less than 10) | 13 | < 10 | < 10 | < 10 | < 10 | < 10 | < 10 | < 10 | < 10 | < 10 | < 10 | < 10 | < 10 | 270 to 272 | < 10 | < 10 | < 10 | inhibition at 10 µM [21]: < 10%; inhibition at 10 µM [22]: < 10%; inhibition at 10 µM [23]: < 10%; inhibition at 10 µM [24]: < 10%; inhibition at 10 µM [25]: < 10%; inhibition at 10 µM [26]: < 10%; inhibition at 10 µM [27]: < 10%
CCOC(=O)C1=C(N)N(c2ccc(Cl)cc2)C2=C(C(=O)CC(C)(C)C2)C1c1ccccn1 (racemic) [12c, (±)-Ethyl 2-amino-1–(4-chlorophenyl)-7,7-dimethyl-5-oxo-4-(pyridine-2-yl)-1,4,5,6,7,8-hexahydroquinoline-3-carboxylate] | < 10 | 19 | - ((-) = GI % mean less than 10) | 25 | 12 | 13 | < 10 | < 10 | < 10 | 11 | 11 | < 10 | < 10 | < 10 | < 10 | < 10 | 256 to 258 | < 10 | < 10 | 23 | inhibition at 10 µM [9]: < 10%; inhibition at 10 µM [21]: < 10%; inhibition at 10 µM [22]: < 10%; inhibition at 10 µM [23]: < 10%; inhibition at 10 µM [24]: < 10%; inhibition at 10 µM [25]: < 10%; inhibition at 10 µM [26]: < 10%; inhibition at 10 µM [27]: 22%
